Tests used:
[1] = test system: colon of rats subjected to an experimental model of colitis; conditions: ip injection; cited from earlier work
[2] = test system: lethal total body irradiation; conditions: ip, adult mice; cited from earlier work
inflammation = conditions: ip, rat; cited from earlier work
[3] = Oral bioavailability by intraduodenal (id) dosing of minipigs, oil formulations, versus iv parent; format: in vivo, Gottingen minipig; conditions: id 10 mg/kg, 10% by weight formulation, vs iv 1 mg/kg parent, AUC0-24 h
Experimental: Compounds were screened for oral bioavailability by injecting the formulated prodrugs directly into the duodenum (intraduodenal or id administration) of the minipig test subjects, thus bypassing the acidic environment of the stomach and thereby eliminating potentially misleading oral bioavailability results that could arise from alteration of the test article drug in the acid environment of the stomach.
The studies were conducted at Xenometrics LLC (Stillwell, Kans.) and the id bioavailability was determined using various axial ligand derivative complexes of GC4419, GC4444, GC4403 and GC4401.
Male Gottingen minipigs (4-5 mo old, 9-12 kg weight) were purchased from Marshall BioResources and housed at Xenometrics. […] The distal end was exteriorized with a reusable accessible hub (see surgical details below). During a recovery period of at least 2 weeks the minipigs were handled daily to acclimate them to the test procedures, i.e., id dosing and blood collections. For each experiment, each minipig received a test article drug dissolved or suspended in an excipient vehicle. […] All dosing experiments were conducted in fasted animals. Food was withdrawn from the minipigs 16 hours before dosing. The minipigs had ad libitum access to water. Dosed minipigs were allowed access to food 6 hour after dosing. The test article was administered at a dose of 10 mg/kg parent drug in 0.1 mL/kg vehicle (e.g., 1.5 mL in 15 kg minipig) as a bolus injection (˜1 minute) via the id cannula. The actual amount of total test article drug administered varied with the formula weight of the prodrug. An equal volume of excipient vehicle was used to flush the cannula after the test article was administered. Approximately 6 hours later, corn oil was used to flush the cannula. After approximately 24 hours post-dose, the catheter was flushed with sterile saline solution and capped. At the following time-points 0.25, 0.5, 1, 2, 4, 8, 24 and 48 hour post-injection, 2 mL blood samples were collected by cranial vena cava puncture (4 mL Sodium heparin Vacutainer, 20 g 1.5″ needle) after the skin surface was wiped with ethanol. The minipig was placed in a sling in a recumbent position without anesthesia for the collection of blood samples. The minipigs were never used more than once per 7 days for experimentation. The blood samples were kept on ice until processed for plasma. Blood samples were centrifuged at 1200×g for ten minutes at 4° C. and plasma samples were transferred to 96 well plate tubes, capped and stored at −20° C. until shipment on dry ice to the analytical laboratory used for measuring the concentration of drug in the plasma. The concentration of the parent manganese pentaaza macrocylic ring complex (independent of the composition of the axial ligands) was measured in plasma using a validated HPLC/MS/MS method that is linear between 50 ng/mL and 20,000 ng/mL.
Maisine 35-1 is chemically defined to be the monoglyceride glyceryl monolinoleate (NF) and was supplied by Gattefosse, SAINT-PRIEST Cedex, France. Labrasol (NF) is chemically defined to be caprylocaproyl polyoxyl-8 glycerides NF and was supplied by Gattefosse, SAINT-PRIEST Cedex, France. Labrafil M 1944 CS is chemically defined to be oleoyl polyoxyl-6 glycerides (NF), and is available from Gattefosse, SAINT-PRIEST Cedex, France. The dosing solutions were all prepared using a four place analytical balance by weighing all components of each formulation so that 10% by weight of each formulation contained the test article drug substance and 90% by weight of the oil used for that formulation.
The bioanalytical method which is used to quantitate the parent Mn(II) macrocyclic ring ligand structure in plasma utilizes HPLC with MS/MS detection and monitors the presence of the monocationic [monoformatoMn(pentaazamacrocycle)]+ complex. […]

[4] = test system: collagen-induced arthritis; conditions: ip, rat collagen-induced arthritis; cited from earlier work
[5] = test system: radiation-induced oral mucositis; conditions: ip, hamster oral mucositis model; cited from earlier work
Solubility in water = format: physicochemical
mouse cancer models = conditions: ip; cited from earlier work
[6] = test system: VEGFr inhibitor-induced pulmonary disease; conditions: ip, rat model; cited from earlier work
oral mucositis = conditions: iv infusion, head-and-neck cancer patients, chemoradiation therapy; cited from earlier work

[Cl-].[Cl-].[Mn+2].c1cc2nc(c1)CN[C@@H]1CCCC[C@H]1NCCN[C@@H]1CCCC[C@H]1NC2 [GC4403]
injury to the colon [1]: significantly reduce the injury to the colon | radiation damage [2]: attenuate the radiation damage | inflammation (inflammation): inhibit inflammation | Mini-Pig BioA ([3]; base oil Capmul MCM): 9% | joint disease [4]: prevent joint disease | radiation damage [5]: attenuate the radiation damage

[Cl][Mn][Cl].c1cc2nc(c1)CN[C@H]1CCCC[C@@H]1NCCN[C@H]1CCCC[C@@H]1NC2 [GC4419, reference compound]
solubility in water (Solubility in water): relatively readily soluble in water | anti-tumor activity of anti-metabolite and anti-mitotic agents (mouse cancer models): increase the anti-tumor activity | Mini-Pig BioA ([3]; base oil Capmul MCM): 9% | Mini-Pig BioA ([3]; base oil Labrafil M2125 CS): 7% | Mini-Pig BioA ([3]; base oil Maisine 35-1): 8% | Mini-Pig BioA ([3]; base oil Miglyol 812 N): 8% | Mini-Pig BioA ([3]; base oil Peceol): 9% | pulmonary disease [6]: attenuate VEGFr inhibitor-induced pulmonary disease | oral mucositis (oral mucositis): reduce oral mucositis

Manganese(II)bis-racemic-phenylglycinato[2S, 21 S-Dimethyl(4aR,13aR,17aR,21 aR)-1,2,3,4,4a,5,6,12,13,13a,14,15,16,17,17a,18,19,20,21,21a-Eicosahydro-11,7-nitrilo-7H-dibenzo[b,h][1,4,7,10] tetraazacycloheptadecine-κN5, κN13, κN18, κN21, κN22]- [GC4715]
Mini-Pig BioA ([3]; base oil Capmul MCM): 36%

Manganese(II)bis-racemic-phenylglycinato[6R-Methyl(4aR,13aR,17aR,21 aR)-1,2,3,4,4a,5,6,12,13,13a,14,15,16,17,17a,18,19,20,21,21a-Eicosahydro-11,7-nitrilo-7H-dibenzo[b,h][1,4,7,10] tetraazacycloheptadecine-κN5, κN13, κN18, κN21, κN22]- [GC4716]
Mini-Pig BioA ([3]; base oil Capmul MCM): 34%

Manganese(II)bis-racemic-phenylglycinato[(4aR,13aR,17aR,21 aR)-1,2,3,4,4a,5,6,12,13,13a,14,15,16,17,17a,18,19,20,21,21a-Eicosahydro-11,7-nitrilo-7H-dibenzo[b,h][1,4,7,10] tetraazacycloheptadecine-κN5, κN13, κN18, κN21, κN22]- [GC4717]
Mini-Pig BioA ([3]; base oil Capmul MCM): 26%

Manganese(II)bis-racemic-phenylglycinato[(4aS,13aS,17aS,21 aS)-1,2,3,4,4a,5,6,12,13,13a,14,15,16,17,17a,18,19,20,21,21a-Eicosahydro-11,7-nitrilo-7H-dibenzo[b,h][1,4,7,10] tetraazacycloheptadecine-κN5, κN13, κN18, κN21, κN22]- [GC4720]
Mini-Pig BioA ([3]; base oil Capmul MCM): 33% | Mini-Pig BioA ([3]; base oil Miglyol 812 N): 32%

— patent US11066433B2, “Pentaaza macrocyclic ring complexes possessing oral bioavailability” (Galera Labs, LLC, priority 2015, dated 2021)
